The nature of series [1]: Antioxidant potential by DPPH assay. The text has this: Assessment of the toxicity is the prerequisite study for the synthetic derivatives. […] AChE enzyme provides the site for the aggregation of the Aβ1–42.
For another series, the target named is T1, hAChE (Homo sapiens, UniProt P22303).
T1 construct: purchased Sigma Aldrich
Nature of the series: biochemical. The following applies: for Selectivity ratio: (IC50 of BuChE)/(IC50 of AChE); for IC50: tris-HCl buffer pH 8.0, read-out: IC50 ± SE hAChE. As for the experimental part: (§1) Himedia supplied Acetylthiocholine iodide (AthCI), Butyrylthiocholine iodide (BthCI), and 5,5′-dithiobis (2-nitrobenzoic acid) (DTNB-reagent). […] AChE (50 μL, 1.00 U mL^−1) or BuChE (50 μL, 0.6 U mL^−1) and 20 μL of the test or standard compounds were incubated in a 96 well plate for 30 minutes at room temperature. […] The IC50 values were determined by measuring the absorbance of the test and standard substances. Three independent runs of the assays were conducted in triplicate.

The next series concerns the target T2, hBuChE (Homo sapiens, UniProt P06276).
T2 construct: purchased Sigma Aldrich
Nature of the series: biochemical. The series is classed as biochemical. The following applies: for IC50: tris-HCl buffer pH 8.0, read-out: IC50 ± SE hBuChE. The method, then: as §1

The test system of another series is T3, Aβ1–42.
T3 construct: Aβ1–42, purchased from Sigma, was dissolved in 10 mM phosphate buffer; purchased Sigma
Kind of series: AChE-induced Aβ1–42 aggregation assay (ThT). It counts as biochemical. As for the experimental part: The Aβ oligomers and aggregates formed with or without AChE and metal ions induce multifaceted toxicity leading to neuronal cell death. […] Aβ1–42, purchased from Sigma, was dissolved in 10 mM phosphate buffer (PBS) of pH 7.5 to get a stock concentration of […]. The test compounds were dissolved in the DMSO and further diluted with PBS. Different proportions of the Aβ1-42: Inhibitor (1 : 0.05, 1 : 1, 1 : 2) were used in the ThT assay. […] The mixtures were incubated at room temperature for 48 hours in the dark.

The subject of the next series is SH-SY5Y cell line. Kind of series: Cell line-based toxicity study (MTT assay). The following applies: 72 h. As for the experimental part:
In recent decades, in vitro cell line research has become commonplace since they are useful for primary optimization and mechanistic investigations before toxicological studies on animals.[29]
Briefly, the cell lines (density 1 × 10^4 cells per wells) were plated in 96 well plates and incubated for 24 h at 37 °C in a humidified atmosphere with 5% CO2. […] The absorbance was measured at 570 nm, and the percent cell viability was calculated. Each treatment was executed in triplicate and data were presented as a percentage of the control.

Entries after “also recorded” stand apart in the source; their conditions may differ.

T1 sequence (P22303 32-614): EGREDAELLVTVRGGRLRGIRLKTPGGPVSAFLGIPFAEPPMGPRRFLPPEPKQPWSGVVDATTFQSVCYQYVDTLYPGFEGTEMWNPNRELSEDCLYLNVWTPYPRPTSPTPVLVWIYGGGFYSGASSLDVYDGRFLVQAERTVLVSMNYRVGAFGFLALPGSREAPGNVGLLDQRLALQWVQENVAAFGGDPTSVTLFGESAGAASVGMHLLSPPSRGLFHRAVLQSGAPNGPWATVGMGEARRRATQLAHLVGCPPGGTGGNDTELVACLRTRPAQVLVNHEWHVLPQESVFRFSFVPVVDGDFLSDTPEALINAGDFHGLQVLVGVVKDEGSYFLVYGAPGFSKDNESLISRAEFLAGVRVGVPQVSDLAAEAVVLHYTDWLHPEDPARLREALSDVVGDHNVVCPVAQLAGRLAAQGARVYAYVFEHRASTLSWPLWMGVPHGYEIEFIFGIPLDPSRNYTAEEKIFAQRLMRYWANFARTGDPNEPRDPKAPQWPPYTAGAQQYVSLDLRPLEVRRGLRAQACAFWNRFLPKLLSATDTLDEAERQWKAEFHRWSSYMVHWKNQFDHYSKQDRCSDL

Regarding `O=C1O[C@H]([C@@H](O)CO)C(O)=C1O` [Ascorbic acid, reference compound], the “% free radicle scavenging, mean ± SE” value was 42.66 ± 1.491% in series [1] (50 μM) and 76.76 ± 0.708% in series [1] (100 μM).
In the case of `COc1ccc2c(c1)c(CC(=O)NN=Cc1cccc(O)c1)c(C)n2C(=O)c1ccc(Cl)cc1` [IND-24, (1-(4-Chlorobenzoyl)-5-methoxy-2-methyl-1H-indol-3-yl)-N′-(3-hydroxybenzylidene) aceto-hydrazide], on hAChE, the Selectivity ratio is 7.83. Besides, the IC50 on hAChE came out at 12.5 ± 0.143 µM; on hBuChE it was 98.18 ± 0.12 µM. The figures for the “% free radicle scavenging, mean ± SE” value in series [1] (50 μM) and in series [1] (100 μM) were 17.68 ± 0.478% and 34.34 ± 1.333%, respectively.
Consider `COc1cccc(C=NNC(=O)Cc2c(C)n(C(=O)c3ccc(Cl)cc3)c3ccc(OC)cc23)c1` [IND-25, (1-(4-Chlorobenzoyl)-5-methoxy-2-methyl-1H-indol-3-yl)-N′-(3-methoxybenzylidene) aceto-hydrazide], for which the IC50 on hAChE is 264.23 ± 0.102 µM; at hBuChE, greater than 1000 µM. Moreover, the “BuChE inhibition (in words)” value at hBuChE was “inactive on the BuChE enzyme”. Moreover, the “% free radicle scavenging, mean ± SE” value is 11.51 ± 0.748% in series [1] (50 μM) and 27.99 ± 1.127% in series [1] (100 μM).
On to `COc1ccc2c(c1)c(CC(=O)NN=Cc1ccc(O)cc1)c(C)n2C(=O)c1ccc(Cl)cc1` [IND-30, (1-(4-Chlorobenzoyl)-5-methoxy-2-methyl-1H-indol-3-yl)-N′-(4-hydroxybenzylidene)aceto-hydrazide], for which, on hAChE, the Selectivity ratio is recorded as 22.92. Besides, the figures for the IC50 at hAChE and at hBuChE were 4.16 ± 0.063 µM and 95.34 ± 0.144 µM, respectively. In addition, the “effect on AChE-induced Aβ1–42 aggregation (in words)” value in the series on Aβ1–42 (0.5, 10, 20 μM, 48 h incubation) is “effective only at the higher dose (20 μM); also recorded: decreased Aβ aggregation in a concentration-dependent manner; also recorded: active at 20 μM”. For the same compound, the “AChE-induced Aβ aggregation inhibited” value in the series on Aβ1–42 (tested at 0.5, 10 and 20 μM) is roughly 50%. In addition, the “% free radicle scavenging, mean ± SE” value in series [1] (50 μM) is 15.19 ± 0.881%; in series [1] (100 μM), 30.65 ± 1.010%. Further, the “concentration with no significant toxicity” value with SH-SY5Y cell line is no more than 30000 µM.
Turning to `COc1ccc2c(c1)c(CC(=O)NN=Cc1ccccc1OC)c(C)n2C(=O)c1ccc(Cl)cc1` [IND-31, (1-(4-Chlorobenzoyl)-5-methoxy-2-methyl-1H-indol-3-yl)-N′-(2-methoxybenzylidene)aceto-hydrazide], the IC50 on hAChE was 421.22 ± 0.086 µM; on hBuChE, greater than 1000 µM. At hBuChE, the “BuChE inhibition (in words)” value is “inactive on hBuChE”. Moreover, the results for the “% free radicle scavenging, mean ± SE” value in series [1] (50 μM) and in series [1] (100 μM) were 9.75 ± 0.625% and 26.43 ± 0.887%, respectively.
As for `COc1ccc2c(c1)c(CC(=O)NN=Cc1c(O)cccc1O)c(C)n2C(=O)c1ccc(Cl)cc1` [IND-40, (1-(4-Chlorobenzoyl)-5-methoxy-2-methyl-1H-indol-3-yl)-N′-(2,6-dihydroxybenzylidene)aceto-hydrazide], the Selectivity ratio at hAChE worked out at 9.77. Also, the 50% inhibitory concentration (IC50) on hAChE was determined as 70.54 ± 0.133 µM; on hBuChE, 689.12 ± 0.128 µM. Moreover, the “% free radicle scavenging, mean ± SE” value in series [1] (50 μM) came to 24.10 ± 0.889%; in series [1] (100 μM), 50.39 ± 0.930%.
For `COc1ccc2c(c1)c(CC(=O)NN=Cc1cccc(O)c1O)c(C)n2C(=O)c1ccc(Cl)cc1` [IND-42, (1-(4-Chlorobenzoyl)-5-methoxy-2-methyl-1H-indol-3-yl)-N′-(2,3-dihydroxybenzylidene)aceto-hydrazide] the same measures were 5.44, 122.75 ± 0.086 µM, 668.22 ± 0.133 µM, 18.21 ± 0.598% and 38.87 ± 1.012%.
